Results: patent publication US4504414A, “Synthetic pyridyl-alanyl decapeptides having antiovulatory activity” (Board of Regents, The University of Texas System, priority 1983, dated 1985)
“And” between values parts separate entries of the source, which are not always exact repeats. Equal entries are not always repeated. Where two headings read alike, the source gives them in different places.

Legend:
[1] = tested on: ovulation in rats; test: Inhibition of ovulation in rats, subcutaneous administration; format: in vivo, rat; details: for inhibition of ovulation: 40 hrs before anticipated ovulation
Description: (§1) Biological Assays. The peptides were assayed for activity to inhibit ovulation in rats, as described [J. Humphries, Y.-P. Wan, K. Folkers and C. Y. Bowers; J. Med. Chem. 21, 120-123 (1978)]. The procedure for assay when the antagonist is administered orally is the same except for the route of administration.

[2] = tested on: ovulation in the rat; test: Assays of antagonists for oral activity (inhibition of ovulation in the rat); format: in vivo
Description: as §1
Analogs I, XI and XII were also tested by the oral route of administration for inhibition of ovulation in the rat, since the projected human application would be by oral administration. The data in Table 3 resulted from the administration at noon. When the administration is at 2:30 PM, effectiveness is reduced, presumably because of the LH surge. Analog I caused 100% AOA at a 2 mg dosage with administration at noon and 71% AOA/2 mg and 50% AOA/1 mg by administration at 2:30 PM Nekola et al. [Science 218, 160-162 (1982)] have reported on the oral activity of I under diverse conditions.

[3] = tested on: ovulation in rats; details: data of Coy et al., cited from earlier work

With “[N--Ac--(pCl--D-Phe)^1,2,D-3-Pal^3,D-Arg^6,D-Ala^10 ]--LHRH [Analog II]” the “% AOA (% inhibition of ovulation in rats)” value ([1]; dose 0.5 μg) was 58%, the “Rats ovu./No. rats” value ([1]; dose 0.5 μg) was 8/19 and the “% AOA (% inhibition of ovulation in rats)” value ([1]; dose 1.0 μg) was 78%. For the same substance, the “Rats ovu./No. rats” value ([1]; dose 1.0 μg) was 3/14.
For “[N--Ac-- (pCl--D-Phe)^1,2,D-Trp^3,D-3-Pal^6,D-Ala^10 ]--LHRH [Analog VII]”, the “% AOA (% inhibition of ovulation in rats)” value ([1]; dose 2.0 μg) was 13%.
For “[N--Ac--3,4-diCl--D-Phe^1,pCl--D-Phehu 2,D-3-Pal^3,D-Arg^7, D-Ala^10 ]--LHRH [Analog XII]”, the “Rats ovu./No. rats” value ([1]; dose 0.25 μg) was 9/9, the “% AOA (% inhibition of ovulation in rats)” value ([1]; dose 0.5 μg) was 82% and the “Rats ovu./No. rats” value ([1]; dose 0.5 μg) was 9/11. For the same substance, the “No. Ova.” value ([2]; 250 μg, administered at noon) was 12.2 ± 1.0, the “Rats Ovu./No. Rats” value ([2]; 250 μg, administered at noon) was 5/5 and the “% AOA” value ([2]; 500 μg, administered at noon) was 63%. For the same substance, the “No. Ova.” value ([2]; 500 μg, administered at noon) was 5.6 ± 2.7 and the “Rats Ovu./No. Rats” value ([2]; 500 μg, administered at noon) was 3/8.
“[N--Ac--D-2-Nal^1,pCl--D-Phe^2,D-3-Pal^3,D-Arg^6, D-Ala^10 ]--LHRH [Analog XI]” gave an inhibition of ovulation ([1]; 10 μg) of 100%, an inhibition of ovulation ([1]; 30 μg) of 100% and an inhibition of ovulation ([1]; 100 μg) of 100%. For the same substance, the “% AOA (% inhibition of ovulation in rats)” value ([1]; dose 0.25 μg) was 57%, the “Rats ovu./No. rats” value ([1]; dose 0.25 μg) was 3/7 and the “% AOA (% inhibition of ovulation in rats)” value ([1]; dose 0.5 μg) was 100%. For the same substance, the “Rats ovu./No. rats” value ([1]; dose 0.5 μg) was 0/9, the “% AOA” value ([2]; 250 μg, administered at noon) was 10% and the “No. Ova.” value ([2]; 250 μg, administered at noon) was 13.0 ± 1.8. For the same substance, the “Rats Ovu./No. Rats” value ([2]; 250 μg, administered at noon) was 9/10, the “% AOA” value ([2]; 500 μg, administered at noon) was 56% and the “No. Ova.” value ([2]; 500 μg, administered at noon) was 6.1 ± 2.5. The “Rats Ovu./No. Rats” value ([2]; 500 μg, administered at noon) was 4/9.
With “[N--Ac--(pCl--D-Phe)^1,2,D-4-Pal^3,6,D-Ala^10 ]--LHRH [Analog VI]” the “% AOA (% inhibition of ovulation in rats)” value ([1]; dose 6.0 μg) was 63% and 62.5% and the “Rats ovu./No. rats” value ([1]; dose 6.0 μg) was 3/8.
With “[N--Ac--(pCl--D-Phe)^1,2,D-Trp^3,D-Arg^6,D-Ala^10 ]--LHRH [Analog I, reference compound]” the “% AOA (% inhibition of ovulation in rats)” value ([1]; dose 1.0 μg) was 83%, the “Rats ovu./No. rats” value ([1]; dose 1.0 μg) was 1/6 and the “% AOA” value ([2]; 1 mg, administered at 2:30 PM) was 50%. For the same substance, the “% AOA” value ([2]; 2 mg, administered at 2:30 PM) was 71%, the “% AOA” value ([2]; 2 mg, administered at noon) was 100% and the “No. Ova.” value ([2]; 2 mg, administered at noon) was 0. For the same substance, the “Rats Ovu./No. Rats” value ([2]; 2 mg, administered at noon) was 0/8, the “% AOA (% inhibition of ovulation in rats)” value ([3]; dose 0.75 μg) was 40% and the “Rats ovu./No. rats” value ([3]; dose 0.75 μg) was 6/10. For the same substance, the “% AOA (% inhibition of ovulation in rats)” value ([3]; dose 1.5 μg) was 100% and the “Rats ovu./No. rats” value ([3]; dose 1.5 μg) was 0/10.
With “[N--Ac--(pCl--D-Phe)^1,2,D-3-Pal^3,D-Trp^6,D-Ala^10 ]--LHRH [Analog VIII]” the “Rats ovu./No. rats” value ([1]; dose 1.0 μg) was 10/10.
In the case of “[N--Ac--(pCl--D-Phe)^1,2,D-3-Pal^3,6,D-Ala^10 ]--LHRH [Analog V]”, the “% AOA (% inhibition of ovulation in rats)” value ([1]; dose 1.0 μg) is reported as 50%, the “Rats ovu./No. rats” value ([1]; dose 1.0 μg) is reported as 5/10 and the “% AOA (% inhibition of ovulation in rats)” value ([1]; dose 3.0 μg) is reported as 100%. For the same substance, the “Rats ovu./No. rats” value ([1]; dose 3.0 μg) was 0/7.
With “[N--Ac--(pCl--D-Phe)^1,2,D-3-Pal^3,6 ]--LHRH [Analog X]” the “% AOA (% inhibition of ovulation in rats)” value ([1]; dose 1.0 μg) was 17%, the “Rats ovu./No. rats” value ([1]; dose 1.0 μg) was 5/6 and the “% AOA (% inhibition of ovulation in rats)” value ([1]; dose 3.0 μg) was 86%. For the same substance, the “Rats ovu./No. rats” value ([1]; dose 3.0 μg) was 1/7.
In the case of “[N--Ac--(pCl--D-Phe)^1,2,D-2-Pal^3,D-Arg^6,D-Ala^10 ]--LHRH [Analog III]”, the “% AOA (% inhibition of ovulation in rats)” value ([1]; dose 1.0 μg) is reported as 29% and the “Rats ovu./No. rats” value ([1]; dose 1.0 μg) is reported as 5/7.
In the case of “[N--Ac--(pCl--D-Phe)^1,2,D-3-Pal^3,D-Arg^6,D-Abu^10 ]--LHRH [Analog IX]”, the “% AOA (% inhibition of ovulation in rats)” value ([1]; dose 1.0 μg) is reported as 10% and the “Rats ovu./No. rats” value ([1]; dose 1.0 μg) is reported as 9/10.
With “[N--Ac--(pCl--D-Phe)^1,2,D-4-Pal^3,D-Arg^6,D-Ala^10 ]--LHRH [Analog IV]” the “% AOA (% inhibition of ovulation in rats)” value ([1]; dose 0.5 μg) was 14%, the “Rats ovu./No. rats” value ([1]; dose 0.5 μg) was 6/7 and the “% AOA (% inhibition of ovulation in rats)” value ([1]; dose 6.0 μg) was 33%. For the same substance, the “Rats ovu./No. rats” value ([1]; dose 6.0 μg) was 6/9.
